In ChEMBL document CHEMBL1201862, “PubChem BioAssay data set” (2004):
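Cultured in 96-well plates, cells were exposed to test compound for 48 hours across five concentrations. Abbreviation: GI50, concentration required for 50% inhibition of growth.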 Active and inactive are the calls of the source. Rule as the data show it: active = GI50 up to about 1.1 µM and inactive = higher.

Legend:
Test in all cases: NCI anticancer screen, dose series, 48 h
[1] = system: A549
[2] = system: ACHN
[3] = system: CAKI-1
[4] = system: DU-145
[5] = system: HL-60
[6] = system: HOP-62
[7] = system: MCF7
[8] = system: MDA-N
[9] = system: NCI/ADR-RES
[10] = system: OVCAR-8
[11] = system: PC-3
[12] = system: RPMI-8226
[13] = system: SF-268
[14] = system: SF-295
[15] = system: SK-MEL-5
[16] = system: SN12C
[17] = system: SNB-19
[18] = system: SW-620
[19] = system: TK-10
[20] = system: UACC-62

Measured: GI50

CC1(C)CN=C(Nc2ccc(F)c(Cl)c2)S1
inactive: [1] > 100 µM | [2] > 100 µM | [3] > 100 µM | [4] > 100 µM | [5] > 100 µM | [6] > 100 µM | [7] > 100 µM | [8] > 100 µM | [9] > 100 µM | [10] > 100 µM | [11] > 100 µM | [12] > 100 µM | [13] > 100 µM | [14] > 100 µM | [15] > 100 µM | [16] > 100 µM | [17] > 100 µM | [18] > 100 µM | [19] > 100 µM | [20] > 100 µM

Cc1ccc(C(=O)Nc2ccc(CP(=O)(O)O)cc2CP(=O)(O)O)cc1NC(=O)Nc1cc(C(=O)Nc2ccc(CP(=O)(O)O)cc2CP(=O)(O)O)ccc1C
inactive: [1] > 100 µM | [2] > 100 µM | [3] > 100 µM | [4] > 100 µM | [5] > 100 µM | [6] > 100 µM | [7] 60.5 µM | [8] > 100 µM | [9] > 100 µM | [10] > 100 µM | [11] > 100 µM | [12] > 100 µM | [13] > 100 µM | [14] > 100 µM | [15] > 100 µM | [16] > 100 µM | [17] > 100 µM | [18] > 100 µM | [19] > 100 µM | [20] > 100 µM

Nc1nnc2oc3ccc4ccccc4c3cc1-2
inactive: [1] 47.3 µM | [2] 20 µM | [3] 48.8 µM | [4] 56.5 µM | [5] 21.9 µM | [6] > 100 µM | [7] 28 µM | [8] 34 µM | [9] 30.9 µM | [10] 32.4 µM | [11] 32.7 µM | [12] 30.5 µM | [13] 34 µM | [14] 26.4 µM | [15] 27.3 µM | [16] 22.9 µM | [17] 51.8 µM | [18] 36.1 µM | [19] 42 µM | [20] 29 µM

CC/C(Cl)=N\OC(=O)Nc1ccc(OC)cc1
inactive: [1] 17.2 µM | [2] 1.92 µM | [3] 1.65 µM | [4] 17.3 µM | [5] 1.85 µM | [6] 16.5 µM | [7] 5.77 µM | [8] 6.14 µM | [9] 6.17 µM | [10] 15 µM | [11] 15.9 µM | [12] 1.9 µM | [13] 14.3 µM | [14] 17 µM | [15] 6.18 µM | [16] 6.55 µM | [17] 24 µM | [18] 2.7 µM | [19] 5.43 µM | [20] 8.57 µM

CCOC(=O)c1ccc(Nc2nc3ccc(C(F)(F)F)cc3nc2C(=O)OCC)cc1
inactive: [1] > 100 µM | [2] > 100 µM | [3] 81.3 µM | [4] > 100 µM | [5] > 100 µM | [6] 49.2 µM | [7] > 100 µM | [8] > 100 µM | [9] > 100 µM | [10] > 100 µM | [11] > 100 µM | [12] > 100 µM | [13] > 100 µM | [14] > 100 µM | [15] > 100 µM | [16] > 100 µM | [17] > 100 µM | [18] > 100 µM | [19] > 100 µM | [20] > 100 µM

CC(=O)N(CCc1ccccc1)C(C)(C#N)c1ccccc1 (stereo not given)
inactive: [1] > 100 µM | [2] > 100 µM | [3] > 100 µM | [4] > 100 µM | [5] > 100 µM | [6] > 100 µM | [7] > 100 µM | [8] > 100 µM | [9] > 100 µM | [10] > 100 µM | [11] > 100 µM | [12] > 100 µM | [13] > 100 µM | [14] > 100 µM | [15] > 100 µM | [16] > 100 µM | [17] > 100 µM | [18] > 100 µM | [19] > 100 µM | [20] > 100 µM

NC1CSc2ccccc2NC1=O (stereo not given)
inactive: [1] > 100 µM | [2] > 100 µM | [3] > 100 µM | [4] > 100 µM | [5] > 100 µM | [6] > 100 µM | [7] > 100 µM | [8] > 100 µM | [9] > 100 µM | [10] > 100 µM | [11] > 100 µM | [12] > 100 µM | [13] > 100 µM | [14] > 100 µM | [15] > 100 µM | [16] > 100 µM | [17] > 100 µM | [18] > 100 µM | [19] > 100 µM | [20] > 100 µM
